Results published in ChEMBL document CHEMBL1123573, “Design and synthesis of peptide derivatives of a 3-deoxy-D-manno-2-octulosonic acid (KDO) analogue as novel antibacterial agents acting upon lipopolysaccharide biosynthesis” (1987).
Converted amounts (≈) assume the structure as drawn.

Assays:
[1] = test system: Escherichia coli; assay: In vitro testing for minimum inhibitory concentration against Escherichia coli ATCC 11303.; format: functional
[2] = test system: Salmonella typhimurium; assay: In vitro testing for minimum inhibitory concentration against Salmonella Typhimurium LT2 168; format: functional, Salmonella enterica subsp. enterica serovar Typhimurium
[3] = test system: Salmonella typhimurium; assay: In vitro testing for minimum inhibitory concentration against Salmonella Typhimurium SL 1102; format: functional, Salmonella enterica subsp. enterica serovar Typhimurium
[4] = Salmonella enterica subsp. enterica serovar Typhimurium

| Molecule | MIC [1] [µM] | MIC ([2]; Salmonella enterica) [µM] | MIC ([3]; Salmonella enterica) [µM] | MIC [2, 4] [µM] | MIC [3, 4] [µM] |
| --- | --- | --- | --- | --- | --- |
| CC1(C)S[C@@H]2[C@H](NC(=O)[C@H](N)c3ccccc3)C(=O)N2[C@H]1C(=O)O [AMPICILLIN] | 1 (≈ 0.349 µg/mL) | 0.3 (≈ 0.105 µg/mL) | 2 (≈ 0.699 µg/mL) |  |  |
| GENTAMICIN | < 0.05 |  |  | < 0.05 | < 0.05 |
| C[C@H](N)C(=O)N[C@@H](C)C(=O)NC[C@H](O)[C@H]1O[C@H](C(=O)O)C[C@@H](O)[C@H]1O | 4 (≈ 1.45 µg/mL) | 60 (≈ 21.8 µg/mL) | 4 (≈ 1.45 µg/mL) |  |  |
| CSCCC(N)C(=O)NCC(O)C1OC(C(=O)O)CC(O)C1O (stereo not given) | > 2000 | > 2000 | > 2000 |  |  |
| CC(N)C(=O)NCC(O)C1OC(C(=O)O)CC(O)C1O (stereo not given) | > 2000 | > 2000 | > 2000 |  |  |
